Measurements published in US20200024278A1, “COMPOSITION COMPRISING ANTIBIOTIC COMPOUND AND AN HETEROCYCLIC COMPOUND AND THEIR USE IN PREVENTING OR TREATING BACTERIAL INFECTIONS” (MUTABILIS, priority 2016, published 2020).

Tests used:
[1] = tested on: SPN 49619; experiment: MIC, broth microdilution (CLSI), substance alone or ATB combined with compound at 4 or 8 μg/mL; type: cell-based, S. pneumoniae; settings: SPN 49619; for MIC ATB combined with compound: compound @8 μg/ml
Summary of the method: (§1)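 CLSI M7-A7 broth microdilution. ca-MHB, 5·10^5 CFU/mL log-phase cells, 16-20 h, 35° C, ambient air. Fosfomycin wells + 25 μg/ml glucose-6-phosphate. Visual MIC read.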

[2] = tested on: SAU 29213; experiment: as above; type: cell-based, S. aureus; settings: for MIC ATB combined with compound: compound @8 μg/ml, SAU 29213
Summary of the method: as §1

[3] = tested on: ECL P99; experiment: as above; type: cell-based, E. cloacae; settings: Enterobacter cloacae; substance alone; ECL P99; read-out: MIC
Summary of the method: as §1

[4] = tested on: PAE UFR90; experiment: Fractional Inhibitory Concentration Index, checkerboard assay; type: cell-based, P. aeruginosa
Experimental: (§2) Method 2: Determination of the Fractional Inhibitory Concentration Index
(§3) Serial 2-fold dilutions of each antibiotic tested were prepared in ca-MHB and mixed in each well of a 96-well microtiter plate so that each row (and column) contained a fixed amount of one agent and increasing amounts of the second agent. The range of drug concentrations used in the checkerboard analysis was such that the dilution range encompassed the MIC for each drug used in the analysis. Broth microdilution plates were inoculated with each strain (Table 3) to yield 5.10^5 CFU/mL in a 100 μL final volume and incubated for 18 h at 35° C. in ambient air. Assays including Fosfomycin were supplemented with 25 μg/ml of Glucose-6-phosphate. MICs were determined after overnight incubation, and the fractional inhibitory concentration (FIC) index was calculated for each well. The FIC index (FICI) was calculated for each combination according to the equation FICI=FICa+FICb=(MIC of drug A in combination/MIC of drug A alone)+(MIC of drug B in combination/MIC of drug B alone). The FICI was interpreted as follows: synergy, FICI […]; indifference, 0.5<FIC<4; and antagonism, FICI>4. The checkerboard assays were performed in duplicate.

[5] = tested on: PAE UFR48; experiment: as above; type: cell-based, P. aeruginosa
Experimental: as §2, §3

[6] = tested on: ECO UFR39; experiment: MIC, broth microdilution (CLSI), substance alone or ATB combined with compound at 4 or 8 μg/mL; type: cell-based, E. coli; settings: Escherichia coli; substance alone; ECO UFR39; read-out: MIC
Summary of the method: as §1

[7] = tested on: ECO 190317; experiment: as above; type: cell-based, E. coli; settings: Escherichia coli; substance alone; ECO 190317; read-out: MIC
Summary of the method: as §1

[8] = tested on: KPN UFR42; experiment: as above; type: cell-based, K. pneumoniae; settings: Klebsiella pneumoniae; substance alone; KPN UFR42; read-out: MIC
Experimental: (§4) Compounds of the present invention were assessed against genotyped bacterial strains alone or in combination with an antibacterial. In the assays, MICs of said compounds or combination of antibiotics with fixed concentrations of said compounds (4 or 8 μg/mL) were determined by the broth microdilution method according to the Clinical Laboratory Standards Institute (CLSI-M7-A7). Briefly, compounds alone according to the invention were prepared in DMSO and spotted (2 μL each) on sterile polystyrene plates (Corning, 3788). Combinations of compounds and antibiotics dilutions were prepared in DMSO and spotted (1 μL each) on sterile polystyrene plates (Corning, 3788). Log phase bacterial suspensions were adjusted to a final density of 5·10^5 CFU/mL in cation-adjusted Mueller-Hinton broth (ca-MHB; Becton-Dickinson and Company) and added to each well (98 μL). Assays including Fosfomycin were supplemented with 25 μg/ml of Glucose-6-phosphate. Microplates were incubated for 16-20 h at 35° C. in ambient air. The MIC of the compounds was defined as the lowest concentration of said compounds that prevented bacterial growth as read by visual inspection. The MIC of ATB at each compound concentration was defined as the lowest concentration of ATB that prevented bacterial growth as read by visual inspection.

[9] = tested on: KPN BAA-1898; experiment: as above; type: cell-based, K. pneumoniae; settings: Klebsiella pneumoniae, BAA1898; substance alone; KPN BAA-1898; read-out: MIC
Experimental: as §4

[10] = tested on: ECO 190317; experiment: Fractional Inhibitory Concentration Index, checkerboard assay; type: cell-based, E. coli
Experimental: as §2, §3

[11] = tested on: KPN UFR68; experiment: as above; type: cell-based, K. pneumoniae
Experimental: as §2, §3

[12] = tested on: PAE 105250; experiment: MIC, broth microdilution (CLSI), substance alone or ATB combined with compound at 4 or 8 μg/mL; type: cell-based, P. aeruginosa; settings: PAE 105250; for MIC ATB combined with compound: compound @8 μg/ml
Summary of the method: as §1

[13] = tested on: PAE UFR90; experiment: as above; type: cell-based, P. aeruginosa; settings: PAE UFR90; for MIC ATB combined with compound: compound @8 μg/ml
Summary of the method: as §1

[14] = tested on: PAE UFR48; experiment: as above; type: cell-based, P. aeruginosa; settings: PAE UFR48; for MIC ATB combined with compound: compound @8 μg/ml
Summary of the method: as §1

[15] = tested on: ECL P99; experiment: Fractional Inhibitory Concentration Index, checkerboard assay; type: cell-based, E. cloacae
Experimental: as §2, §3

[16] = Pseudomonas aeruginosa, substance alone, read-out: MIC

Q: How did the “MIC ATB combined with compound” value ([1]; ATB ATM) turn out when `O=C1N2CC(c3cccnc3)=CC(C2)N1OS(=O)(=O)[O-].[Na+]` (stereo not drawn) [Example 8, sodium [3-(3-pyridyl)-7-oxo-1,6-diazabicyclo[3.2.1]oct-3-en-6-yl] sulfate] was run?
A: <=0.031 μg/mL

Q: What about the “MIC ATB combined with compound” value ([1]; ATB FEP) of the same molecule?
A: <0.031 µg/mL

Q: And the “MIC ATB combined with compound” value ([1]; ATB FOS)?
A: <0.125 µg/mL

Q: What about the “MIC ATB combined with compound” value ([1]; ATB MEM) of the same molecule?
A: <0.031 µg/mL

Q: What about the “MIC ATB combined with compound” value ([1]; ATB PIP) of the same molecule?
A: <0.031 µg/mL

Q: And the MIC ([1]; Streptococcus pneumoniae, substance alone, read-out: MIC)?
A: 4 µg/mL

Q: What about the “MIC ATB combined with compound” value ([2]; ATB ATM) of the same molecule?
A: <0.031 µg/mL

Q: And the “MIC ATB combined with compound” value ([2]; ATB FEP)?
A: <=0.031 μg/mL

Q: What about the “MIC ATB combined with compound” value ([2]; ATB FOS) of the same molecule?
A: 0.25 µg/mL

Q: And the “MIC ATB combined with compound” value ([2]; ATB MEM)?
A: <0.031 µg/mL

Q: And the “MIC ATB combined with compound” value ([2]; ATB PIP)?
A: <0.031 µg/mL

Q: What about the MIC ([2]; Staphylococcus aureus, substance alone, SAU 29213 (MSSA 29213), read-out: MIC) of the same molecule?
A: 8 µg/mL

Q: And the MIC [3]?
A: 8 µg/mL

Q: What about the FIC index min ([4]; compound +ATM) of the same molecule?
A: ≤0.75

Q: And the FIC index min ([4]; compound +FEP)?
A: ≤0.25

Q: And the FIC index min ([4]; compound +FOS)?
A: ≤0.62

Q: What about the FIC index min ([4]; compound +MEM) of the same molecule?
A: ≤0.56

Q: And the FIC index min ([4]; compound +PIP)?
A: ≤0.25

Q: And the FIC index min ([5]; compound +ATM)?
A: ≤0.13

Q: What about the FIC index min ([5]; compound +FEP) of the same molecule?
A: ≤0.5

Q: What about the FIC index min ([5]; compound +FOS) of the same molecule?
A: ≤0.25

Q: And the FIC index min ([5]; compound +MEM)?
A: 1.0

Q: And the FIC index min ([5]; compound +PIP)?
A: ≤0.31

Q: And the MIC [6]?
A: 4 µg/mL

Q: What about the MIC [7] of the same molecule?
A: 4 µg/mL

Q: What about the MIC [8] of the same molecule?
A: 16 µg/mL

Q: And the MIC [9]?
A: 8 µg/mL

Q: And the FIC index min ([10]; compound +ATM)?
A: 0.13

Q: What about the FIC index min ([10]; compound +FEP) of the same molecule?
A: 0.13

Q: What about the FIC index min ([10]; compound +FOS) of the same molecule?
A: 0.63

Q: And the FIC index min ([10]; compound +MEM)?
A: 0.57

Q: And the FIC index min ([10]; compound +PIP)?
A: ≤0.14

Q: And the FIC index min ([11]; compound +ATM)?
A: ≤0.07

Q: What about the FIC index min ([11]; compound +FEP) of the same molecule?
A: ≤0.08

Q: What about the FIC index min ([11]; compound +FOS) of the same molecule?
A: 0.75

Q: And the FIC index min ([11]; compound +MEM)?
A: ≤0.07

Q: What about the FIC index min ([11]; compound +PIP) of the same molecule?
A: ≤0.07

Q: And the “MIC ATB combined with compound” value ([12]; ATB ATM)?
A: 8 µg/mL

Q: And the “MIC ATB combined with compound” value ([12]; ATB FEP)?
A: 4 µg/mL

Q: And the “MIC ATB combined with compound” value ([12]; ATB FOS)?
A: 128 µg/mL

Q: What about the “MIC ATB combined with compound” value ([12]; ATB MEM) of the same molecule?
A: 2 µg/mL

Q: And the “MIC ATB combined with compound” value ([12]; ATB PIP)?
A: >32 µg/mL

Q: What about the MIC [12, 16] of the same molecule?
A: > 32 µg/mL

Q: What about the “MIC ATB combined with compound” value ([13]; ATB ATM) of the same molecule?
A: 16 µg/mL

Q: What about the “MIC ATB combined with compound” value ([13]; ATB FEP) of the same molecule?
A: 4 µg/mL

Q: And the “MIC ATB combined with compound” value ([13]; ATB FOS)?
A: 8 µg/mL

Q: What about the “MIC ATB combined with compound” value ([13]; ATB MEM) of the same molecule?
A: 2 µg/mL

Q: And the “MIC ATB combined with compound” value ([13]; ATB PIP)?
A: >32 µg/mL

Q: And the MIC [13, 16]?
A: > 128 µg/mL

Q: What about the “MIC ATB combined with compound” value ([14]; ATB ATM) of the same molecule?
A: 16 µg/mL

Q: And the “MIC ATB combined with compound” value ([14]; ATB FEP)?
A: 32 µg/mL

Q: And the “MIC ATB combined with compound” value ([14]; ATB FOS)?
A: 32 µg/mL

Q: And the “MIC ATB combined with compound” value ([14]; ATB MEM)?
A: 4 µg/mL

Q: And the “MIC ATB combined with compound” value ([14]; ATB PIP)?
A: >32 µg/mL

Q: And the MIC [14, 16]?
A: > 128 µg/mL

Q: What about the FIC index min ([15]; compound +ATM) of the same molecule?
A: 0.53

Q: What about the FIC index min ([15]; compound +FEP) of the same molecule?
A: 0.25

Q: And the FIC index min ([15]; compound +FOS)?
A: ≤0.28

Q: And the FIC index min ([15]; compound +MEM)?
A: 0.75

Q: What about the FIC index min ([15]; compound +PIP) of the same molecule?
A: 0.16
